Source: patent publication US6632981B1, “DNA sequences encoding polypeptides having beta-1,3-glucanase activity” (Novartis Finance Corporation, priority 1988, dated 2003)

Columns and labels:
[1] = system: chemically regulatable chimeric genes coding for GUS, AHAS or BT; test: Primer extension assay for mRNA of chemically regulatable chimeric genes; format: in vivo; settings: callus or regenerated plant material from transgenic plants; level proportional to amount of regulator applied
Experimental: 50 g of total RNA is lyophilized in a 500 l Eppendorf tube. The RNA is resuspended in 30 l of radiolabeled probe solution and heated to 70′ C. for 10 minutes. The tube is slowly cooled to 37° C. and allowed to incubate overnight. Without removing the tube from the 37° C. water bath, 2 l of 10×reverse-transcriptase buffer (500 mM Tris-HCl, pH 7.5, 400 mM KCl, 30 mM MgCl2), 1 l 5 mg/ml bovine serum albumin, 5 l 100 mM dithiothreitol, 5 l 10×dNTPs (10 mM of each dNTP in H2O), 3 l H 20, 2 l RNasin (80 units), and 2 l reverse transcriptase (400 units) are added and the reaction is incubated at 37° C. for 30 minutes. To stop the reaction, 5 l of 3 M sodium acetate, pH 5, and 150 l absolute ethanol are added. The tube is left at −20° C. for 30 minutes, the precipitate is collected by centrifugation, washed with 80% ethanol and allowed to air-dry. The precipitate is resuspended in 10-20 l of loading dye (90% formamide, 0.05% bromophenol blue, 0.05% xylene cyanol, 1 mM EDTA) and the extension products are separated on a 6% sequencing gel (Maniatis, T. et al., supra). Extension products are visualized by autoradiography.
Plant materials induced and harvested as in Examples 140 to 142 are assayed for the induction of mRNA species by the isolation of RNA and the primer extension assay as described in Example 6.
The level of mRNA is proportional to the amount of regulator applied.

[2] = system: cucumber chitinase protein; test: Cucumber chitinase ELISA in transgenic plants carrying cucumber chitinase genomic constructs after leaf treatment; format: in vivo, tobacco; design: key: —: Indicates that sample has no detectable level of chitinase protein
Experimental: Once the transgenic plants are transferred to soil, they are grown 4-5 weeks before treatment. The following solutions are applied to the leaves with sterile paintbrushes:
3. Methyl benzo-1,2,3-thiadiazole-7-carboxylate. The solution is made by resuspending a wettable powder containing a formulation of the chemical with 25% active ingredient in sterile water at a concentration of 1 mg/ml.
4. Methyl 2,6-dichloroisonicotinate, prepared as above. Alternatively, 30 ul of 10 mM sodium phosphate buffer, pH 7.0, or 30 ul of the same buffer containing tobacco mosaic virus (50-100 pfu/30 ul) is applied to the leaves which have been sprinkled with carborundum. The buffers are distributed over the whole treated leaf by gentle rubbing.
The plants are allowed to continue to grow for seven days. The treated leaves are then harvested, frozen in liquid nitrogen and stored at −80° C. until they are assayed.
Frozen leaf tissue is ground in a mortar with a pestle in the presence of liquid nitrogen to produce a fine powder. 0.33 g of each tissue sample is added to 1 ml extraction buffer (50 mM Tris-HCl, pH 8.5, 0.2M 2-mercaptoethanol, 2 mM phenyl methyl sulfonyl fluoride, 2 mM benzamidine, 10 mM epsilon-aminocaproic acid, 1 mM leueptine) and the sample homogenized for one minute with an Ultra Turrax Mixer (shaft #S25N-8G, Tekmar Co. Cincinnati, Ohio). The samples are then centrifuged at 48,000×g for fifteen minutes at 4° C. and the supernatant removed from the pelleted material. The extracts are diluted at least 1:50 in ELISA diluent (101 mM sodium phosphate, pH 7.4, 140 mM sodium chloride, 0.05% Tween 20, 0.02% sodium azide, 1% BSA).
A microtiter plate is coated with monoclonal antibody specific to the cucumber chitinase protein at 2 ug/ml in borate-buffered saline (100 mM boric acid, 25mM sodium borate, 75 mM sodium chloride; pH 8.5) using 50 ul per well. The plate is incubated overnight at 4° C. The plate is washed with ELISA wash buffer (10 mM Tris-HCl, pH 8.0, 0.05% Tween 20, 3 mM sodium azide) and BSA blocking solution (10 mM sodium phosphate, pH 7.4, 140 mM sodium chloride, 0.02% sodium azide, 1% BSA) is added to completely cover each well. Incubation is for at least 30 minutes at room temperature.
The microtiter plate is washed with ELISA wash buffer and 50 ul of extract is added to the appropriate well. 50 ul of each of 10 chitinase protein standards (ranging from 0 ng/ml to 31.64 ng/ml) was also added to the appropriate well and the plate is incubated for two hours at 4° C. The plate is washed with ELISA wash buffer and 50 ul of rabbit polyclonal antibody to the cucumber chitainase protein (diluted 1:15,000 in ELISA diluent) is added to the well and incubated for one hour at 37° C. After washing with ELISA wash buffer, 50 ul of goat anti-rabbit conjugated to alkaline phosphatase (1:500 in ELISA diluent) is added to each well and incubated at 37° C. for one hour. The plate is then washed and 50 ul alkaline phosphatase substrate solution (0.6 mg/ml p-nitrophenyl phosphate in 0.5 mM magnesium chloride and 10% diethanolamine) is added to each well. After a 30 minute incubation at room temperature, 50 ul of 3N sodium hydroxide is added to each well to stop the reaction.
The plate is read at 405 nm and 492 nm on an HP Genenchem ELISA plate reader. The output values are expressed as A(405 nm)-A(492 nm)−0.092 to allow for correction of p-nitrophenyl phosphate as substrate. The chitinase standards for each plate are graphed logarithmically. The amount of chitinase protein in each sample is determined from the standard curve. If the amount of chitinase in any sample is close to the upper limit of the curve, the sample is assayed again at a greater dilution. Final results are expressed in the table below in ug chitinase per gram tissue.

COC(=O)c1cccc2nnsc12 [Methyl benzo-1,2,3-thiadiazole-7-carboxylate]
level of mRNA of the chimeric gene (GUS, AHAS or BT primer), primer extension assay [1]: elevated levels of mRNA | ELISA ASSAY RESULTS (ug chitinase/g tissue) ([2]; line Bam-1 (2001/BamChit), leaves harvested after seven days, water 0.066, buffer —): 3.000 ug chitinase/g tissue | ELISA ASSAY RESULTS (ug chitinase/g tissue) ([2]; line Bam-3 (2001/BamChit), seven days, water —, buffer —): 0.504 ug chitinase/g tissue | ELISA ASSAY RESULTS (ug chitinase/g tissue) ([2]; line Bam-4 (2001/BamChit), seven days, water —, buffer —): — | ELISA ASSAY RESULTS (ug chitinase/g tissue) ([2]; line Bam-8 (2001/BamChit), seven days, water —, buffer —): — | ELISA ASSAY RESULTS (ug chitinase/g tissue) ([2]; line Bam-9 (2001/BamChit), seven days, water —, buffer —): 33.885 ug chitinase/g tissue | ELISA ASSAY RESULTS (ug chitinase/g tissue) ([2]; line Bam-10 (2001/BamChit), seven days, water 0.059, buffer 0.084): 25.182 ug chitinase/g tissue | ELISA ASSAY RESULTS (ug chitinase/g tissue) ([2]; line Bam-12 (2001/BamChit), seven days, water —, buffer —): 1.349 ug chitinase/g tissue | ELISA ASSAY RESULTS (ug chitinase/g tissue) ([2]; line Bam-14 (2001/BamChit), seven days, water —, buffer —): 0.541 ug chitinase/g tissue | ELISA ASSAY RESULTS (ug chitinase/g tissue) ([2]; line Bam-15 (2001/BamChit), seven days, water —, buffer —): 3.366 ug chitinase/g tissue | ELISA ASSAY RESULTS (ug chitinase/g tissue) ([2]; line Bam-16 (2001/BamChit), seven days, water —, buffer —): 18.849 ug chitinase/g tissue | ELISA ASSAY RESULTS (ug chitinase/g tissue) ([2]; line Bam-17 (2001/BamChit), seven days, water —, buffer —): 2.997 ug chitinase/g tissue | ELISA ASSAY RESULTS (ug chitinase/g tissue) ([2]; line Bam-19 (2001/BamChit), seven days, water —, buffer —): 0.998 ug chitinase/g tissue | ELISA ASSAY RESULTS (ug chitinase/g tissue) ([2]; line Bam-21 (2001/BamChit), seven days, water —, buffer —): — | ELISA ASSAY RESULTS (ug chitinase/g tissue) ([2]; line Bam-23 (2001/BamChit), seven days, water —, buffer —): 0.782 ug chitinase/g tissue | ELISA ASSAY RESULTS (ug chitinase/g tissue) ([2]; line Bam-24 (2001/BamChit), seven days, water —, buffer —): 0.88 ug chitinase/g tissue | ELISA ASSAY RESULTS (ug chitinase/g tissue) ([2]; line Bam-25 (2001/BamChit), seven days, water —, buffer —): 18.145 ug chitinase/g tissue | ELISA ASSAY RESULTS (ug chitinase/g tissue) ([2]; line Bam-26 (2001/BamChit), seven days, water —, buffer —): 0.676 ug chitinase/g tissue | ELISA ASSAY RESULTS (ug chitinase/g tissue) ([2]; line Nco-2 (2001/NcoChit), seven days, water —, buffer —): — | ELISA ASSAY RESULTS (ug chitinase/g tissue) ([2]; line Nco-3 (2001/NcoChit), seven days, water —, buffer —): — | ELISA ASSAY RESULTS (ug chitinase/g tissue) ([2]; line Nco-5 (2001/NcoChit), seven days, water —, buffer —): — | ELISA ASSAY RESULTS (ug chitinase/g tissue) ([2]; line Nco-8 (2001/NcoChit), seven days, water —, buffer —): — | ELISA ASSAY RESULTS (ug chitinase/g tissue) ([2]; line Nco-9 (2001/NcoChit), seven days, water —, buffer —): — | ELISA ASSAY RESULTS (ug chitinase/g tissue) ([2]; line Nco-10 (2001/NcoChit), seven days, water —, buffer —): 0.047 ug chitinase/g tissue | ELISA ASSAY RESULTS (ug chitinase/g tissue) ([2]; line Nco-11 (2001/NcoChit), seven days, water —, buffer —): — | ELISA ASSAY RESULTS (ug chitinase/g tissue) ([2]; line Nco-15 (2001/NcoChit), seven days, water —, buffer —): — | ELISA ASSAY RESULTS (ug chitinase/g tissue) ([2]; line Nco-16 (2001/NcoChit), seven days, water 0.555, buffer 0.566): 0.784 ug chitinase/g tissue | ELISA ASSAY RESULTS (ug chitinase/g tissue) ([2]; line Nco-17 (2001/NcoChit), seven days, water —, buffer —): — | ELISA ASSAY RESULTS (ug chitinase/g tissue) ([2]; line Sal-2 (2001/SalChit), seven days, water —, buffer —): 0.117 ug chitinase/g tissue | ELISA ASSAY RESULTS (ug chitinase/g tissue) ([2]; line Sal-3 (2001/SalChit), seven days, water —, buffer —): 0.060 ug chitinase/g tissue | ELISA ASSAY RESULTS (ug chitinase/g tissue) ([2]; line Sal-4 (2001/SalChit), seven days, water —, buffer —): 0.537 ug chitinase/g tissue | ELISA ASSAY RESULTS (ug chitinase/g tissue) ([2]; line Sal-5 (2001/SalChit), seven days, water —, buffer —): 0.229 ug chitinase/g tissue | ELISA ASSAY RESULTS (ug chitinase/g tissue) ([2]; line Sal-7 (2001/SalChit), seven days, water —, buffer —): 0.377 ug chitinase/g tissue | ELISA ASSAY RESULTS (ug chitinase/g tissue) ([2]; line Sal-8 (2001/SalChit), seven days, water —, buffer —): — | ELISA ASSAY RESULTS (ug chitinase/g tissue) ([2]; line Sal-9 (2001/SalChit), seven days, water —, buffer —): 0.553 ug chitinase/g tissue | ELISA ASSAY RESULTS (ug chitinase/g tissue) ([2]; line Sal-11 (2001/SalChit), seven days, water —, buffer —): — | ELISA ASSAY RESULTS (ug chitinase/g tissue) ([2]; line Sal-12 (2001/SalChit), seven days, water —, buffer —): — | ELISA ASSAY RESULTS (ug chitinase/g tissue) ([2]; line Sal-13 (2001/SalChit), seven days, water —, buffer —): — | ELISA ASSAY RESULTS (ug chitinase/g tissue) ([2]; line Sal-14 (2001/SalChit), seven days, water —, buffer —): — | ELISA ASSAY RESULTS (ug chitinase/g tissue) ([2]; line Sal-15 (2001/SalChit), seven days, water —, buffer —): 0.038 ug chitinase/g tissue
